The text below walks through data of patent EP3325012B1, “CINEOLE-CONTAINING COMPOSITION FOR TREATING NOSE POLYPS” (Maria Clementine Martin Klosterfrau Vertriebsgesellschaft …, priority 2015, dated 2017).

Each structure is given as a SMILES string.

The test system of one assay is GSK-3-alpha/beta. Kind of assay: Western blot of phospho-GSK-3 (Ser-9/-21) in nasal polyp samples. As to conditions: 100 µM, 24 h (Figur 4A). In kind it is cell-based, Mensch. As to the method: Lysate von Geweben wurden durch Erhitzen über einen Zeitraum von 5 Minuten in einfachem SDS-Probenpuffer (Carl Roth GmbH, Karlsruhe, Deutschland) denaturiert. Die Proteinkonzentrationen wurden mittels des Bradford-Tests bestimmt und jeweils 30 µg Gesamtprotein wurden zur SDS-Polyacrylamid-Gel Elektrophorese eingesetzt (Mini-Protean TGX®, Any kD, BioRad, Hercules, CA, USA) und anschließend auf Nitrozellulosemembranen übertragen. Die Übertragung der Proteine wurde mittels Ponceau-Färbung kontrolliert. […]
Um die Beladungsmenge jeder Spur zu bestimmen, wurden die Nitrozellulosemembranen über Nacht bei 4 °C mit einem primären Antikörper der GAPDH (Cell Signaling Technology Inc., Massachusetts, Katalognummer: 14C10) in einer Verdünnung von 1 : 1.000 inkubiert. […] Die Pixeldichten wurden quantifiziert und mittels Fusion FX7® unter Einsatz von Bio-1D Software® dokumentiert. […]
Background: In western blotting, separated proteins are transferred to a membrane and probed.

Assay [1] deals with Transkriptionsfaktors NF-kB. Briefly: NF-kB transcription factor activity in polyp material. In kind it is cell-based, Mensch. As to conditions: in Polyposis nasi et sinuum; TNF-alpha as positive control. From the text: Da auch für Polyposis nasi et sinuum postuliert wird, dass Entzündungsparameter einen entscheidenden Einfluss auf die Progression dieser Erkrankung haben, untersuchte die Anmelderin den Einfluss von Cineol auf die Aktivität des Transkriptionsfaktors Nuclear Factor kappa B (NF-kB) und auf die Aktivität eines breiten Spektrums verschiedener Phosphokinasen, um so die molekularen Angriffspunkte von Cineol in verschiedenen Biosynthesewegen der Zelle hinsichtlich des Polyposis nasi et sinuum-"Mikromilieus" zu identifizieren.
Bei den Messergebnissen wurde TNF-alpha (tumor necrosis factor-alpha) als etablierter Stimulus der NF-kB Aktivität und somit als interne Positivkontrolle verwendet.

Assay [2] deals with permanente Zelllinien maligner Kopf-Hals-Tumoren. Briefly: Cell migration test (xCELLigence). In kind it is cell-based. As to conditions: 2 mM. From the text: Um den Einfluss von Cineol auf die zelluläre Migrations-Aktivität zu untersuchen, wurden Migrations-CIM-Platten 16 (Roche, Mannheim, Deutschland), bei welchen es sich um ein durch eine poröse Membran getrenntes 2-Kammer-System handelt, entsprechend der Bedienungsanleitung des Herstellers verwendet (Roche Diagnostics). Die Zellen wandern dabei von der oberen Kammer durch die Membran und haften an den elektronischen Sensoren an der Unterseite der Membran, so dass ein Anstieg der Impedanz resultiert. Die Veränderungen werden automatisch und kontinuierlich durch das RTCA-DP-Instrument aufgezeichnet, und die Zellmigrations-Aktivität kann durch das Zell-Index-Profil überwacht werden. Vor dem Befüllen der Wells mit Zellen (60.000 Zellen/Well) wurde die Unterseite der Wells der oberen Kammer der CIM-Platte 16 mit 30 µl Collagen I ([…], Sigma, Deisenhofen, Deutschland) beschichtet. Jede Behandlungsbedingung wurde in dreifacher Ausführung gemessen.
Neben der zellulären Vitalität und Progression sowie dem Einfluss auf Apoptose und Zellzyklus hat die Anmelderin auch den Einfluss von Cineol auf das zelluläre Migrationsverhalten untersucht. […]

In assay [3] the test system is proinflamatorischer Zytokine. As to conditions: inhalation; cited from earlier work.
The next assay concerns Fibroblastenzelllinie. Briefly: MTT assay, vitality and proliferation of a fibroblast cell line. The class given is cell-based. As to conditions: 1 mM bis 10 mM, 250 Stunden. As to the method: Es wurden weiterführende Untersuchungen durchgeführt zur Analyse des Einflusses von Cineol auf die Vitalität und Proliferation verschiedener permanenter Zelllinien. Hierzu wurden einerseits die zwei HNSCC-Zelllinien und des Weiteren eine Fibroblastenzelllinie verwendet. Diese wurden über einen Zeitraum von 250 Stunden mit verschiedenen Cineol-Konzentrationen kultiviert (1 mM bis 10 mM) und die Vitalität der Zellen wurde jeweils mittels eines MTT-Assays untersucht.
In general terms: Tetrazolium dyes change colour on reduction, which living cells bring about.

On to `CC12CCC(CC1)C(C)(C)O2` [1,8-Cineol, 1,3,3-Trimethyl-2-oxabicyclo[2.2.2]octan], for which the “Phosphorylierung von GSK-3-alpha/beta an Serin-9/-21” value in the assay on GSK-3-alpha/beta is listed as “verringerten Phosphorylierung”. Also, in assay [1], the “Aktivität des Transkriptionsfaktors NF-kB” value is listed as “keinen inhibierenden Einfluss hierauf hat, sondern vielmehr leicht aktivierend”. Moreover, the “zelluläre Migrationsaktivität” value in assay [2] is “leichten Einfluss”. For the same molecule, the “proinflamatorische Zytokine” value in assay [3] was “deutlichen Reduktion”. Moreover, the “Progression und Vitalität von Fibroblasten” value in the assay with Fibroblastenzelllinie was “inhibierender Einfluss”.
